From US9624241B2 (Incyte Corporation, priority 2013, dated 2017) come the findings set out here.

For one assay, the target named is BRD4-BD2 (Homo sapiens (Human), UniProt O60885). Kind of assay: BRD4 AlphaScreen Assay (Example A2), BRD4-BD2. Type of assay: binding. The protocol: (§1) BRD4-BD1 and BRD4-BD2 assays were conducted in white 384-well polystyrene plate in a final volume of 40 μL for BD1 and 60 μL for BD2. Inhibitors were first serially diluted in DMSO and added to the plate wells before the addition of other reaction components. […] The assays were carried out at room temperature in the assay buffer (50 mM Tris-HCl, pH 7.5, 0.01% Tween-20, 0.01% BSA, 5 mM DTT), containing 50 nM Biotin-labeled tetra-acetylated histone H4 peptide (H4Ac4) and BRD4-BD1 or BRD4-BD2 protein at concentration less than 1 nM. […] After plate sealing, the plate was incubated in the dark at room temperature for 75 min. before reading on a PHERAstar FS plate reader (BMG Labtech). IC50 determination was performed by fitting the curve of percent control activity versus the log of the inhibitor concentration using the GraphPad Prism 5.0 software.
A general note: In Alpha technology, singlet oxygen from a donor bead excites a nearby acceptor bead.

Another assay deals with BRD4-BD1 (Homo sapiens (Human), UniProt O60885). Kind of assay: BRD4 AlphaScreen Assay (Example A2), BRD4-BD1. Type of assay: binding. The protocol: as §1
Setting [1] is: Assay A2, AlphaScreen, BRD4-BD2, read-out: BRD4 BD-2 enzyme IC50.
The mark [2] stands for this setting: Assay A2, AlphaScreen, BRD4-BD1, read-out: BRD4 BD-1 enzyme IC50.

Molecules are shown by their SMILES. Read-outs that look alike come from different tables or passages of the source.

By IC50 is commonly meant the concentration that inhibits the measured activity by half.

On to `Cc1noc(C)c1-c1ccc2nc(C3CCN(S(C)(=O)=O)C3)n3c2c1OC[C@@H]3c1ccccn1` (mixture of isomers) [Example 115, (4S)-7-(3,5-dimethylisoxazol-4-yl)-2-[1-(methylsulfonyl)pyrrolidin-3-yl]-4-pyridin-2-yl-4,5-dihydroimidazo[1,5,4-de][1,4]benzoxazine (mixture of diastereomers)], for which the half-maximal inhibitory concentration (IC50) on BRD4-BD2 (setting [1]) and on BRD4-BD1 (setting [2]) was below 100 nM each time.
With `CC(=O)N1CCCC(c2nc3ccc(-c4c(C)noc4C)c4c3n2[C@@H](c2ccccn2)CO4)C1` (mixture of isomers) [Example 117, (4S)-2-(1-acetylpiperidin-3-yl)-7-(3,5-dimethylisoxazol-4-yl)-4-pyridin-2-yl-4,5-dihydroimidazo[1,5,4-de][1,4]benzoxazine (mixture of diastereomers)], the IC50 at BRD4-BD2 (setting [1]) and at BRD4-BD1 (setting [2]) was below 100 nM each time.
As to `Cc1noc(C)c1-c1ccc2nc(C3CCCN(C(=O)C4CC4)C3)n3c2c1OC[C@@H]3c1ccccn1` (mixture of isomers) [Example 118, (4S)-2-[1-(cyclopropylcarbonyl)piperidin-3-yl]-7-(3,5-dimethylisoxazol-4-yl)-4-pyridin-2-yl-4,5-dihydroimidazo[1,5,4-de][1,4]benzoxazine (mixture of diastereomers)], the IC50 at BRD4-BD2 (setting [1]) and on BRD4-BD1 (setting [2]) was below 100 nM throughout.
For the compound `Cc1noc(C)c1-c1ccc2nc(C3CCCN(S(C)(=O)=O)C3)n3c2c1OC[C@@H]3c1ccccn1` (mixture of isomers) [Example 119, (4S)-7-(3,5-dimethylisoxazol-4-yl)-2-[1-(methylsulfonyl)piperidin-3-yl]-4-pyridin-2-yl-4,5-dihydroimidazo[1,5,4-de][1,4]benzoxazine (mixture of diastereomers)], the concentration for half-maximal inhibition (IC50) on BRD4-BD2 (setting [1]) and on BRD4-BD1 (setting [2]) was below 100 nM each time.
As to `Cc1noc(C)c1-c1ccc2c3c1CCC(c1ccccc1)n3c(=O)n2C` (racemic) [Example 121, 7-(3,5-Dimethylisoxazol-4-yl)-1-methyl-4-phenyl-5,6-dihydro-4H-imidazo[4,5,1-ij]quinolin-2(1H)-one], the IC50 was below 100 nM at BRD4-BD2 (setting [1]) and 100 to 1000 nM on BRD4-BD1 (setting [2]).
As for `Cc1noc(CO)c1-c1ccc2[nH]c(=O)n3c2c1OCC3c1ccccn1` (racemic) [Example 124, 7-[5-(Hydroxymethyl)-3-methylisoxazol-4-yl]-4-pyridin-2-yl-4,5-dihydroimidazo[1,5,4-de][1,4]benzoxazin-2(1H)-one], the half-maximal inhibitory concentration (IC50) on BRD4-BD2 (setting [1]) was in the range of 100 to 1000 nM; on BRD4-BD1 (setting [2]), 1000 to 10000 nM.
The matching figures for `Cc1noc(C)c1-c1ccc2[nH]c(=O)n3c2c1OCC3c1cccnc1C#N` (racemic) [Example 126, 3-[7-(3,5-Dimethylisoxazol-4-yl)-2-oxo-1,2,4,5-tetrahydroimidazo[1,5,4-de][1,4]benzoxazin-4-yl]pyridine-2-carbonitrile]: below 100 nM and 100 to 1000 nM.
On to `COC(=O)c1ncccc1C1COc2c(-c3c(C)noc3C)ccc3[nH]c(=O)n1c23` (racemic) [Example 132, Methyl 3-[7-(3,5-dimethylisoxazol-4-yl)-2-oxo-1,2,4,5-tetrahydroimidazo[1,5,4-de][1,4]benzoxazin-4-yl]pyridine-2-carboxylate], for which the half-inhibitory concentration (IC50) at BRD4-BD2 (setting [1]) and on BRD4-BD1 (setting [2]) was below 100 nM each time.
`Cc1noc(C)c1-c1ccc2[nH]c(=O)n3c2c1OC(C(=O)NCCO)C3c1ccccc1` (single isomer, unassigned) [Example 48A, 7-(3,5-Dimethylisoxazol-4-yl)-N-(2-hydroxyethyl)-2-oxo-4-phenyl-1,2,4,5-tetrahydroimidazo[1,5,4-de][1,4]benzoxazine-5-carboxamide]: the half-inhibitory concentration (IC50) at BRD4-BD2 (setting [1]) is below 100 nM; on BRD4-BD1 (setting [2]), 100 to 1000 nM.
For the compound `Cc1noc(C)c1-c1ccc2[nH]c(=O)n3c2c1OC(C(=O)NCCO)C3c1ccccc1` (single isomer, unassigned) [Example 48B, 7-(3,5-Dimethylisoxazol-4-yl)-N-(2-hydroxyethyl)-2-oxo-4-phenyl-1,2,4,5-tetrahydroimidazo[1,5,4-de][1,4]benzoxazine-5-carboxamide], the results for the IC50 on BRD4-BD2 (setting [1]) and on BRD4-BD1 (setting [2]) were below 100 nM and 100 to 1000 nM, respectively.
The matching figures for `Cc1noc(C)c1-c1ccc2[nH]c(=O)n3c2c1OC(C)(C)C3c1ccccn1` (single isomer, unassigned) [Example 61A, 7-(3,5-Dimethylisoxazol-4-yl)-5,5-dimethyl-4-pyridin-2-yl-4,5-dihydroimidazo[1,5,4-de][1,4]benzoxazin-2(1H)-one]: below 100 nM and below 100 nM.
The corresponding values for `Cc1noc(C)c1-c1ccc2[nH]c(=O)n3c2c1OC(CO)C3c1ccccn1` (single isomer, unassigned) [Example 62B, 7-(3,5-Dimethylisoxazol-4-yl)-5-(hydroxymethyl)-4-pyridin-2-yl-4,5-dihydroimidazo[1,5,4-de][1,4]benzoxazin-2(1H)-one] are below 100 nM and below 100 nM.
On to `Cc1noc(C)c1-c1ccc2[nH]c(=O)n3c2c1OCC3C1CCCCN1` (single isomer, unassigned) [Example 63A, 7-(3,5-Dimethylisoxazol-4-yl)-4-piperidin-2-yl-4,5-dihydroimidazo[1,5,4-de][1,4]benzoxazin-2(1H)-one 2,2,2-trifluoroacetate], for which the half-inhibitory concentration (IC50) at BRD4-BD2 and against BRD4-BD1 was 100 to 1000 nM in each case.
Take `Cc1noc(C)c1-c1ccc2[nH]c(=O)n3c2c1OCC3c1cccnc1C(=O)NC1CC1` (single isomer, unassigned) [Example 134, N-Cyclopropyl-3-[7-(3,5-dimethylisoxazol-4-yl)-2-oxo-1,2,4,5-tetrahydroimidazo[1,5,4-de][1,4]benzoxazin-4-yl]pyridine-2-carboxamide]: the IC50 at BRD4-BD2 (setting [1]) and at BRD4-BD1 (setting [2]) was below 100 nM each time.
Regarding `Cc1noc(C)c1-c1cc(C(C)O)c2[nH]c(=O)n3c2c1OC[C@@H]3c1ccccn1` (single isomer, unassigned) [Example 144A], the IC50 was below 100 nM at BRD4-BD2 (setting [1]) and 100 to 1000 nM at BRD4-BD1 (setting [2]).
With `Cc1noc(C)c1-c1cc(C(C)O)c2[nH]c(=O)n3c2c1OC[C@@H]3c1ccccn1` (single isomer, unassigned) [Example 144B], the values for the IC50 at BRD4-BD2 (setting [1]) and on BRD4-BD1 (setting [2]) were below 100 nM and 100 to 1000 nM, respectively.
For `Cc1noc(C)c1-c1ccc2nc(N3CC(O)C3)n3c2c1OCC3c1cccnc1` (single isomer, unassigned) [Example 160A, 1-[7-(3,5-Dimethylisoxazol-4-yl)-4-pyridin-3-yl-4,5-dihydroimidazo[1,5,4-de][1,4]benzoxazin-2-yl]azetidin-3-ol], the IC50 at BRD4-BD2 (setting [1]) fell in the range of 100 to 1000 nM; at BRD4-BD1 (setting [2]) it was 1000 to 10000 nM.
On to `Cc1noc(C)c1-c1ccc2nc(N3CC(O)C3)n3c2c1OCC3c1cccnc1` (single isomer, unassigned) [Example 160B, 1-[7-(3,5-Dimethylisoxazol-4-yl)-4-pyridin-3-yl-4,5-dihydroimidazo[1,5,4-de][1,4]benzoxazin-2-yl]azetidin-3-ol], for which the half-maximal inhibitory concentration (IC50) at BRD4-BD2 (setting [1]) and at BRD4-BD1 (setting [2]) was 1000 to 10000 nM each time.
Take `Cc1noc(C)c1-c1ccc2nc(N3CC(O)C3)n3c2c1OCC3c1cccnc1` (single isomer, unassigned) [Example 160C, 1-[7-(3,5-Dimethylisoxazol-4-yl)-4-pyridin-3-yl-4,5-dihydroimidazo[1,5,4-de][1,4]benzoxazin-2-yl]azetidin-3-ol]: the half-maximal inhibitory concentration (IC50) at BRD4-BD2 (setting [1]) and at BRD4-BD1 (setting [2]) was 1000 to 10000 nM in each case.
`Cc1noc(C)c1-c1ccc2nc(N3CC(O)C3)n3c2c1OCC3c1cccnc1` (single isomer, unassigned) [Example 160D, 1-[7-(3,5-Dimethylisoxazol-4-yl)-4-pyridin-3-yl-4,5-dihydroimidazo[1,5,4-de][1,4]benzoxazin-2-yl]azetidin-3-ol]: the half-maximal inhibitory concentration (IC50) at BRD4-BD2 (setting [1]) and on BRD4-BD1 (setting [2]) was 1000 to 10000 nM each time.
With `Cc1noc(C)c1-c1cc(Cl)c2[nH]c(=O)n3c2c1OCC3c1ccccn1` (single isomer, unassigned) [Example 266A, 9-chloro-7-(3,5-dimethylisoxazol-4-yl)-4-pyridin-2-yl-4,5-dihydroimidazo[1,5,4-de][1,4]benzoxazin-2(1H)-one], the concentration for half-maximal inhibition (IC50) was below 100 nM on BRD4-BD2 (setting [1]) and 100 to 1000 nM at BRD4-BD1 (setting [2]).
For `Cc1noc(C)c1-c1cc(Cl)c2[nH]c(=O)n3c2c1OCC3c1ccccn1` (single isomer, unassigned) [Example 266B, 9-chloro-7-(3,5-dimethylisoxazol-4-yl)-4-pyridin-2-yl-4,5-dihydroimidazo[1,5,4-de][1,4]benzoxazin-2(1H)-one], the values for the IC50 at BRD4-BD2 (setting [1]) and at BRD4-BD1 (setting [2]) were 100 to 1000 nM and 1000 to 10000 nM, respectively.
Regarding `Cc1noc(C)c1-c1cc(Br)c2[nH]c(=O)n3c2c1OCC3c1ccccn1` (single isomer, unassigned) [Example 267A, 9-bromo-7-(3,5-dimethylisoxazol-4-yl)-4-pyridin-2-yl-4,5-dihydroimidazo[1,5,4-de][1,4]benzoxazin-2(1H)-one], the IC50 at BRD4-BD2 (setting [1]) and at BRD4-BD1 (setting [2]) was 1000 to 10000 nM in each case.
For the compound `Cc1noc(C)c1-c1ccc2nc(C3CCN(C(=O)C4CC4)C3)n3c2c1OC[C@@H]3c1ccccn1` (single isomer, unassigned; diastereomer 2) [Example 114B], the half-inhibitory concentration (IC50) at BRD4-BD1 (setting [2]) is below 100 nM.
Turning to `Cc1noc(C)c1-c1ccc2nc(N3CCC(NC(=O)C(C)C)CC3)n3c2c1OCC3c1ccccn1` (stereo not drawn) [Example 244], the IC50 on BRD4-BD2 (setting [1]) is below 100 nM.
